Values after ≈ are worked out from the molar mass of the structure shown. Values joined by “and” are separate entries in the source; they are usually repeats but may differ in a detail not shown here. Equal entries are not always repeated. One block for each molecule: values may come before it.
Columns and labels:
Assay in all cases: ≥ marks a high value that may be exact or a test limit, other limits are often not marked, values filed in µg/mL are converted to µM
[1] = test system: Pseudomonas aeruginosa PTCC 2834
[2] = test system: Neurospora crassa CBS 327-54
[3] = test system: Micrococcus luteus A270
[4] = test system: Staphylococcus aureus PTCC 1442
[5] = test system: Escherichia coli D22
[6] = test system: Aspergillus fumigatus
[7] = test system: Staphylococcus aureus
[8] = test system: Pseudomonas aeruginosa BNCC 125486
[9] = test system: Listeria monocytogenes
[10] = test system: Escherichia coli
[11] = test system: Staphylococcus aureus USA 300
[12] = test system: Acinetobacter baumannii
[13] = test system: Bacillus subtilis 168
[14] = test system: Escherichia coli BNCC 133264
[15] = test system: Klebsiella pneumoniae
[16] = test system: Escherichia coli K-12
[17] = test system: Pseudomonas aeruginosa PAO1
[18] = test system: Staphylococcus aureus BNCC 186335
[19] = test system: Escherichia coli BL21(DE3)
[20] = test system: Escherichia coli JM109
[21] = test system: Pseudomonas putida GPp104
[22] = test system: Cupriavidus necator H16
[23] = test system: Pseudomonas aeruginosa CCARM 2109
[24] = test system: Bacillus subtilis KCTC 3068
[25] = test system: Bacillus subtilis ATCC 9372
[26] = test system: Staphylococcus aureus CCARM 3543
[27] = test system: Pseudomonas aeruginosa CCARM 2092
[28] = test system: Pseudomonas aeruginosa KCTC 1637
[29] = test system: Burkholderia thailandensis
[30] = test system: Pseudomonas aeruginosa CCARM 2095
[31] = test system: Bacillus anthracis Sterne 34F2
[32] = test system: Salmonella typhimurium KCTC 1926
[33] = test system: Staphylococcus aureus CCARM 3001
[34] = test system: Staphylococcus aureus CCARM 3089
[35] = test system: Staphylococcus aureus KCTC 1621
[36] = test system: Staphylococcus epidermidis KCTC 1917
[37] = test system: Escherichia coli KCTC 1682
[38] = test system: Staphylococcus aureus 725
[39] = test system: Staphylococcus aureus NCTC 10788
[40] = test system: Staphylococcus aureus 113
[41] = test system: Bacillus subtilis ATCC 23857
[42] = test system: Staphylococcus aureus ATCC 33591
[43] = test system: Staphylococcus aureus ATCC 25923
[44] = test system: Acinetobacter baumannii 9840
[45] = test system: Acinetobacter baumannii 97830
[46] = test system: Salmonella enterica subsp. enterica serovar Typhimurium ATCC 14028
[47] = test system: Pseudomonas aeruginosa 1570
[48] = test system: Staphylococcus epidermidis ATCC 12228
[49] = test system: Escherichia coli ATCC 25922
[50] = test system: Staphylococcus aureus 75
[51] = test system: Candida albicans NCPF 1467
[52] = test system: Escherichia coli NCTC 10418
[53] = test system: Pseudomonas aeruginosa 5167
[54] = test system: Staphylococcus aureus 936
[55] = test system: Staphylococcus aureus 794
[56] = test system: Pseudomonas aeruginosa ATCC 15692

MIC [1]: 20.6 µM (≈ 48 µg/mL)
MIC [2]: ≥ 50 µM
MIC [3]: 15 µM (≈ 34.9 µg/mL)
MIC [4]: ≥ 43 µM
MIC [5]: ≥ 150 µM
MIC [6]: ≥ 80 µM
Structure (SMILES): CSCC[C@H](NC(=O)[C@H](CO)NC(=O)[C@@H](N)CO)C(=O)N[C@@H](CCCCN)C(=O)N[C@@H](CC(C)C)C(=O)N[C@@H](CO)C(=O)N[C@@H](Cc1ccccc1)C(=O)N[C@@H](CCCN=C(N)N)C(=O)N[C@@H](C)C(=O)N[C@@H](CCCN=C(N)N)C(=O)N[C@@H](C)C(=O)N[C@@H](Cc1ccc(O)cc1)C(=O)NCC(=O)N[C@@H](Cc1ccccc1)C(=O)N[C@@H](CCCN=C(N)N)C(=O)NCC(=O)N1CCC[C@H]1C(=O)NCC(=O)N1CCC[C@H]1C(=O)N[C@@H](CCC(N)=O)C(=O)N[C@@H](CC(C)C)C(=O)O [SSMKLSFRARAYGFRGPGPQL]

MIC [7]: 1.36 µM (≈ 2 µg/mL)
MIC [8]: ≥ 86.8 µM
MIC [9]: 1.36 µM (≈ 2 µg/mL)
MIC [10]: 21.7 µM (≈ 32 µg/mL)
MIC [11]: 3.12 µM (≈ 4.6 µg/mL)
MIC [12]: ≥ 43.4 µM
MIC [13]: 6.25 µM (≈ 9.21 µg/mL)
MIC [14]: ≥ 43.4 µM
MIC [15]: > 43.4 µM
MIC [16]: 25 µM (≈ 36.8 µg/mL)
MIC [17]: > 100 µM
MIC [18]: 1.36 µM (≈ 2 µg/mL)
Structure (SMILES): CC[C@H](C)[C@H](NC(=O)[C@H](CCCCN)NC(=O)[C@@H]1CCCN1C(=O)[C@@H](NC(=O)[C@H](CC(C)C)NC(=O)[C@H](CCCCN)NC(=O)[C@H](CC(C)C)NC(=O)[C@@H](NC(=O)[C@H](CO)NC(=O)CNC(=O)[C@H](Cc1ccccc1)NC(=O)[C@@H](N)Cc1ccccc1)C(C)C)[C@@H](C)CC)C(=O)N[C@@H](CC(C)C)C(N)=O [FFGSVLKLIPKIL]

MIC [19]: 0.313 µM (≈ 0.686 µg/mL)
MIC [20]: 6.25 µM (≈ 13.7 µg/mL)
MIC [21]: 6.25 µM (≈ 13.7 µg/mL)
MIC [22]: 25 µM (≈ 54.8 µg/mL)
Structure (SMILES): CC[C@H](C)[C@H](NC(=O)[C@H](Cc1ccc(O)cc1)NC(=O)[C@@H](NC(=O)[C@@H]1CCCN1C(=O)[C@H](CCCN=C(N)N)NC(=O)[C@@H]1CCCN1C(=O)[C@H](CC(N)=O)NC(=O)[C@@H](N)CCCN=C(N)N)C(C)C)C(=O)N1CCC[C@H]1C(=O)N[C@@H](CCC(N)=O)C(=O)N1CCC[C@H]1C(=O)N[C@@H](CCCN=C(N)N)C(=O)N1CCC[C@H]1C(=O)N1CCC[C@H]1C(=O)N[C@@H](Cc1cnc[nH]1)C(=O)N1CCC[C@H]1C(=O)N[C@@H](CCCN=C(N)N)C(=O)N[C@@H](CC(C)C)C(=O)O [RNPRPVYIPQPRPPHPRL]

Structure (SMILES): CC(C)[C@H](NC(=O)[C@H](CCCCN)NC(=O)[C@H](CCCN=C(N)N)NC(=O)[C@H](CCCCN)NC(=O)[C@H](CCCCN)NC(=O)[C@H](CCCCN)NC(=O)[C@@H]1CCCN1C(=O)[C@H](CCC(N)=O)NC(=O)[C@H](CO)NC(=O)[C@H](Cc1c[nH]c2ccccc12)NC(=O)[C@H](CCCCN)NC(=O)[C@@H](NC(=O)[C@H](Cc1c[nH]c2ccccc12)NC(=O)[C@H](Cc1c[nH]c2ccccc12)NC(=O)[C@@H](NC(=O)[C@H](CCCCN)NC(=O)[C@H](Cc1c[nH]c2ccccc12)NC(=O)[C@H](Cc1c[nH]c2ccccc12)NC(=O)[C@@H](NC(=O)[C@H](CCCCN)NC(=O)[C@@H](N)CCCCN)[C@@H](C)O)[C@@H](C)O)[C@@H](C)O)C(=O)O [KKTWWKTWWTKWSQPKKKRKV]
MIC [23]: 8 µM (≈ 22.8 µg/mL)
MIC [24]: 2 µM (≈ 5.69 µg/mL)
MIC [25]: 3.3 µM (≈ 9.39 µg/mL)
MIC [26]: 1 µM (≈ 2.85 µg/mL)
MIC [27]: 8 µM (≈ 22.8 µg/mL)
MIC [28]: 2.83 µM (≈ 8.05 µg/mL)
MIC [29]: ≥ 100 µM
MIC [30]: 8 µM (≈ 22.8 µg/mL)
MIC [31]: ≥ 59 µM
MIC [32]: 1.41 µM (≈ 4.02 µg/mL)
MIC [33]: 2 µM (≈ 5.69 µg/mL)
MIC [34]: 2 µM (≈ 5.69 µg/mL)
MIC [35]: 2 µM (≈ 5.69 µg/mL)
MIC [36]: 1.41 µM (≈ 4.02 µg/mL)
MIC [37]: 2 µM (≈ 5.69 µg/mL)

MIC [38]: 7.17 µM (≈ 7.99 µg/mL)
MIC [39]: 7 µM (≈ 7.8 µg/mL)
MIC [40]: 7.17 µM (≈ 7.99 µg/mL)
MIC [12]: 10.1 µM (≈ 11.3 µg/mL)
MIC [41]: 3.59 µM (≈ 4 µg/mL)
MIC [42]: 7.17 µM and 14.3 µM
MIC [43]: 14.3 µM (≈ 16 µg/mL)
MIC [44]: 10.1 µM (≈ 11.3 µg/mL)
MIC [45]: 7.17 µM (≈ 7.99 µg/mL)
MIC [46]: 14.3 µM (≈ 16 µg/mL)
MIC [47]: 7.17 µM (≈ 7.99 µg/mL)
MIC [48]: 14.3 µM (≈ 16 µg/mL)
MIC [49]: 28.7 µM (≈ 32 µg/mL)
MIC [50]: 7.17 µM (≈ 7.99 µg/mL)
MIC [51]: 7 µM (≈ 7.8 µg/mL)
MIC [52]: 14 µM (≈ 15.6 µg/mL)
MIC [53]: 14.3 µM (≈ 16 µg/mL)
MIC [54]: 7.17 µM (≈ 7.99 µg/mL)
MIC [55]: 14.3 µM (≈ 16 µg/mL)
MIC [56]: 7.17 µM (≈ 7.99 µg/mL)
Structure (SMILES): CC(C)C[C@H](NC(=O)[C@H](CC(C)C)NC(=O)[C@H](CCCCN)NC(=O)[C@H](CCCCN)NC(=O)[C@H](CC(C)C)NC(=O)[C@H](CC(C)C)NC(=O)[C@H](CCCCN)NC(=O)[C@H](CC(C)C)NC(=O)[C@@H](N)Cc1ccccc1)C(N)=O [FLKLLKKLL]

From DBAASP
